Experimental data taken from patent publication US20060069132A1, “Azolecarboxamide herbicides” (priority 2004, published 2006).

How the values were obtained:
Surinam grass = assay: Test C pre-/postemergence herbicide test; type: in vivo, Urochloa decumbens
Method in brief: (§1)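 Preemergence: seeds planted and treated with compound in non-phytotoxic solvent with surfactant; postemergence: plants at 2 to 18 cm (1- to 4-leaf stage) sprayed likewise. Kept in greenhouse 12 to 14 days, then visually rated against controls, 0 (no effect) to 100 (complete control).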

corn = assay: Test C pre-/postemergence herbicide test; type: in vivo, Zea mays
Method in brief: as §1

woolly cupgrass = assay: Test C pre-/postemergence herbicide test; type: in vivo, Eriochloa villosa
Method in brief: as §1

goosegrass = assay: Test C pre-/postemergence herbicide test; type: in vivo, Eleusine indica
Method in brief: as §1

kochia = assay: Test C pre-/postemergence herbicide test; type: in vivo, Kochia scoparia
Method in brief: as §1

lambsquarters = assay: Test C pre-/postemergence herbicide test; type: in vivo, Chenopodium album
Method in brief: as §1

morningglory = assay: Test C pre-/postemergence herbicide test; type: in vivo, Ipomoea coccinea; design: key to Plant response rating, Morningglory: 0 = no effect, 100 = complete control
Method in brief: as §1

yellow nutsedge = assay: Test C pre-/postemergence herbicide test; type: in vivo, Cyperus esculentus
Method in brief: as §1

pigweed = assay: Test C pre-/postemergence herbicide test; type: in vivo, Amaranthus retroflexus
Method in brief: as §1

soybean = assay: Test C pre-/postemergence herbicide test; type: in vivo, Glycine max
Method in brief: as §1

[1] = system: smallflower umbrella sedge; assay: Test C flooded paddy test; type: in vivo, Cyperus difformis
barnyardgrass = assay: Test C flooded paddy test; type: in vivo, Echinochloa crus-galli
Method in brief: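 Ratings (0 = no effect, 100 = complete control) come from visual comparison with untreated plants after 12 to 14 days in the greenhouse. Treatment was postemergence at the 1- to 4-leaf stage (2–18 cm), or at the 2-leaf stage for the flooded paddy barnyardgrass.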

[2] = 62 g ai/ha, preemergence, scale 0 to 100
[3] = 250 g ai/ha, scale 0-100, preemergence
[4] = 125 g ai/ha, scale 0 (no effect) to 100 (complete control), visual, 12 to 14 days, preemergence
[5] = 125 g ai/ha, scale 0 to 100 (0 no effect, 100 complete control)
[6] = 250 g ai/ha, scale of 0 to 100, 0 is no effect, 100 is complete control
[7] = 500 g ai/ha, visual rating after 12 to 14 days, scale 0 to 100 (0 no effect, 100 complete control)

CCn1nc(C(C)(C)C)cc1C(=O)Nc1cc(C(=S)N(C)C)ccn1 [Compound 334]
Plant response rating, Surinam Grass (Surinam grass; [2]): 55
Plant response rating, Surinam Grass (Surinam grass; [3]): 95
Plant response rating, Corn (corn; [2]): 0
Plant response rating, Corn (corn; [4]): 20
Plant response rating, Corn (corn; [3]): 50
Plant response rating, Cupgrass, Woolly (woolly cupgrass; [2]): 25
Plant response rating, Cupgrass, Woolly (woolly cupgrass; [4]): 60
Plant response rating, Cupgrass, Woolly (woolly cupgrass; [3]): 85
Plant response rating, Goosegrass (goosegrass; [2]): 100
Plant response rating, Goosegrass (goosegrass; [4]): 100
Plant response rating, Goosegrass (goosegrass; [3]): 100
Plant response rating, Kochia (kochia; [2]): 100
Plant response rating, Kochia (kochia; [4]): 100
Plant response rating, Kochia (kochia; [3]): 100
Plant response rating, Lambsquarters (lambsquarters; [2]): 100
Plant response rating, Lambsquarters (lambsquarters; [4]): 100
Plant response rating, Lambsquarters (lambsquarters; [3]): 100
Plant response rating, Morningglory (morningglory; [2]): 5
Plant response rating, Morningglory (morningglory; [4]): 20
Plant response rating, Morningglory (morningglory; [3]): 40
Plant response rating, Nutsedge, Yellow (yellow nutsedge; 31 g ai/ha, scale 0 to 100, last section of Table C, preemergence): 5
Plant response rating, Nutsedge, Yellow (yellow nutsedge; [2]): 10
Plant response rating, Nutsedge, Yellow (yellow nutsedge; [4]): 40
Plant response rating, Nutsedge, Yellow (yellow nutsedge; [3]): 55
Plant response rating, Pigweed (pigweed; [2]): 100
Plant response rating, Pigweed (pigweed; [4]): 100
Plant response rating, Pigweed (pigweed; [3]): 100
Plant response rating, Soybean (soybean; [2]): 15
Plant response rating, Soybean (soybean; [3]): 80
Sedge, Umbrella plant response rating ([1]; 62 g ai/ha, scale 0 to 100): 80
Sedge, Umbrella plant response rating [1, 5]: 90
Sedge, Umbrella plant response rating [1, 6]: 90
Plant response rating, Sedge, Umbrella [1, 7]: 95
Barnyardgrass plant response rating (barnyardgrass; 62 g ai/ha, scale 0 to 100 (0 no effect, 100 complete control)): 70
Barnyardgrass plant response rating (barnyardgrass; [5]): 90
Barnyardgrass plant response rating (barnyardgrass; [6]): 95
Plant response rating, Barnyardgrass (barnyardgrass; [7]): 95

CCn1nc2c(c1C(=O)Nc1cc(C(=O)N(C)C)ccc1F)CCC2(C)C [Compound 352, N-[5-[(dimethylamino)carbonyl]-2-fluorophenyl]-2-ethyl-2,4,5,6-tetrahydro-6,6-dimethyl-3-cyclopentapyrazolecarboxamide]
Plant response rating (0 = no effect, 100 = complete control), Surinam Grass (Surinam grass; 125 g ai/ha, preemergence): 50
pest or weed control at 62 g/ha (Surinam grass; Urochloa decumbens, pre-emergence, 312 h, 62 g ai/ha, preemergence, scale 0 to 100, read-out: Plant response rating, Surinam Grass): 10%
pest or weed control at 250 g/ha (Surinam grass; Urochloa decumbens, pre-emergence, 312 h, 250 g ai/ha, scale 0-100, read-out: Plant response rating, Surinam Grass): 100%
pest or weed control at 500 g/ha (Surinam grass; Urochloa decumbens, pre-emergence, 312 h, 500 g ai/ha, scale 0 to 100 (0 no effect, 100 complete control), visual, 12 to 14 days, read-out: Plant response rating, Surinam Grass): 100%
Plant response rating (0 = no effect, 100 = complete control), Corn (corn; 125 g ai/ha, preemergence): 15
Corn plant response rating (crop injury, 0 = no effect, 100 = complete kill) at 62 g/ha (corn; Zea mays, pre-emergence, 312 h, 62 g ai/ha, preemergence, scale 0 to 100): 0%
Corn plant response rating (crop injury, 0 = no effect, 100 = complete kill) at 250 g/ha (corn; Zea mays, pre-emergence, 312 h, 250 g ai/ha, scale 0-100): 30%
Corn plant response rating (crop injury, 0 = no effect, 100 = complete kill) at 500 g/ha (corn; Zea mays, pre-emergence, 312 h, 500 g ai/ha, scale 0 to 100 (0 no effect, 100 complete control), visual, 12 to 14 days): 50%
Plant response rating (0 = no effect, 100 = complete control), Cupgrass, Woolly (woolly cupgrass; 125 g ai/ha, preemergence): 50
pest or weed control at 62 g/ha (woolly cupgrass; Eriochloa villosa, pre-emergence, 312 h, 62 g ai/ha, preemergence, scale 0 to 100, read-out: Plant response rating, Cupgrass, Woolly): 5%
pest or weed control at 250 g/ha (woolly cupgrass; Eriochloa villosa, pre-emergence, 312 h, 250 g ai/ha, scale 0-100, read-out: Plant response rating, Cupgrass, Woolly): 60%
pest or weed control at 500 g/ha (woolly cupgrass; Eriochloa villosa, pre-emergence, 312 h, 500 g ai/ha, scale 0 to 100 (0 no effect, 100 complete control), visual, 12 to 14 days, read-out: Plant response rating, Cupgrass, Woolly): 85%
Plant response rating (0 = no effect, 100 = complete control), Goosegrass (goosegrass; 125 g ai/ha, preemergence): 85
pest or weed control at 62 g/ha (goosegrass; Eleusine indica, pre-emergence, 312 h, 62 g ai/ha, preemergence, scale 0 to 100, read-out: Plant response rating, Goosegrass): 80%
pest or weed control at 250 g/ha (goosegrass; Eleusine indica, pre-emergence, 312 h, 250 g ai/ha, scale 0-100, read-out: Plant response rating, Goosegrass): 100%
pest or weed control at 500 g/ha (goosegrass; Eleusine indica, pre-emergence, 312 h, 500 g ai/ha, scale 0 to 100 (0 no effect, 100 complete control), visual, 12 to 14 days, read-out: Plant response rating, Goosegrass): 100%
Plant response rating (0 = no effect, 100 = complete control), Kochia (kochia; 125 g ai/ha, preemergence): 85
pest or weed control at 62 g/ha (kochia; Bassia scoparia, pre-emergence, 62 g ai/ha, preemergence, scale 0 to 100, read-out: Plant response rating, Kochia): 80%
pest or weed control at 250 g/ha (kochia; Bassia scoparia, pre-emergence, 250 g ai/ha, scale 0-100, read-out: Plant response rating, Kochia): 100%
pest or weed control at 500 g/ha (kochia; Bassia scoparia, pre-emergence, 500 g ai/ha, scale 0 to 100 (0 no effect, 100 complete control), visual, 12 to 14 days, read-out: Plant response rating, Kochia): 100%
Plant response rating (0 = no effect, 100 = complete control), Lambsquarters (lambsquarters; 125 g ai/ha, preemergence): 100
pest or weed control at 62 g/ha (lambsquarters; Chenopodium album, pre-emergence, 62 g ai/ha, preemergence, scale 0 to 100, read-out: Plant response rating, Lambsquarters): 85%
pest or weed control at 250 g/ha (lambsquarters; Chenopodium album, pre-emergence, 250 g ai/ha, scale 0-100, read-out: Plant response rating, Lambsquarters): 100%
pest or weed control at 500 g/ha (lambsquarters; Chenopodium album, pre-emergence, 500 g ai/ha, scale 0 to 100 (0 no effect, 100 complete control), visual, 12 to 14 days, read-out: Plant response rating, Lambsquarters): 100%
Plant response rating (0 = no effect, 100 = complete control), Morningglory (morningglory; 125 g ai/ha, preemergence): 5
pest or weed control at 62 g/ha (morningglory; Ipomoea, pre-emergence, 62 g ai/ha, preemergence, scale 0 to 100, read-out: Plant response rating, Morningglory): 5%
pest or weed control at 250 g/ha (morningglory; Ipomoea, pre-emergence, 250 g ai/ha, scale 0-100, read-out: Plant response rating, Morningglory): 40%
pest or weed control at 500 g/ha (morningglory; Ipomoea, pre-emergence, 500 g ai/ha, scale 0 to 100 (0 no effect, 100 complete control), visual, 12 to 14 days, read-out: Plant response rating, Morningglory): 60%
Plant response rating (0 = no effect, 100 = complete control), Nutsedge, Yellow (yellow nutsedge; 125 g ai/ha, preemergence): 0
pest or weed control at 62 g/ha (yellow nutsedge; Cyperus, pre-emergence, 62 g ai/ha, preemergence, scale 0 to 100, read-out: Plant response rating, Nutsedge, Yellow): 0%
pest or weed control at 250 g/ha (yellow nutsedge; Cyperus, pre-emergence, 250 g ai/ha, scale 0-100, read-out: Plant response rating, Nutsedge, Yellow): 10%
pest or weed control at 500 g/ha (yellow nutsedge; Cyperus, pre-emergence, 500 g ai/ha, scale 0 to 100 (0 no effect, 100 complete control), visual, 12 to 14 days, read-out: Plant response rating, Nutsedge, Yellow): 50%
Plant response rating (0 = no effect, 100 = complete control), Pigweed (pigweed; 125 g ai/ha, preemergence): 85
pest or weed control at 62 g/ha (pigweed; Amaranthus retroflexus, pre-emergence, 62 g ai/ha, preemergence, scale 0 to 100, read-out: Plant response rating, Pigweed): 40%
pest or weed control at 250 g/ha (pigweed; Amaranthus retroflexus, pre-emergence, 250 g ai/ha, scale 0-100, read-out: Plant response rating, Pigweed): 100%
pest or weed control at 500 g/ha (pigweed; Amaranthus retroflexus, pre-emergence, 500 g ai/ha, scale 0 to 100 (0 no effect, 100 complete control), visual, 12 to 14 days, read-out: Plant response rating, Pigweed): 100%
Plant response rating (0 = no effect, 100 = complete control), Soybean (soybean; 125 g ai/ha, preemergence): 15
plant injury at 62 g/ha (soybean; Glycine max, pre-emergence, 62 g ai/ha, preemergence, scale 0 to 100, read-out: Plant response rating, Soybean): 0%
plant injury at 250 g/ha (soybean; Glycine max, pre-emergence, 250 g ai/ha, scale 0-100, read-out: Plant response rating, Soybean): 50%
plant injury at 500 g/ha (soybean; Glycine max, pre-emergence, 500 g ai/ha, scale 0 to 100 (0 no effect, 100 complete control), visual, 12 to 14 days, read-out: Plant response rating, Soybean): 70%
pest or weed control at 62 g/ha ([1]; Cyperus difformis, 62 g ai/ha, scale 0 to 100, read-out: Sedge, Umbrella plant response rating): 50%
pest or weed control at 125 g/ha ([1]; Cyperus difformis, 125 g ai/ha, scale 0 to 100 (0 no effect, 100 complete control), read-out: Sedge, Umbrella plant response rating): 75%
pest or weed control at 250 g/ha ([1]; Cyperus difformis, 250 g ai/ha, scale of 0 to 100, 0 is no effect, 100 is complete control, read-out: Sedge, Umbrella plant response rating): 90%
pest or weed control at 500 g/ha ([1]; Cyperus difformis, 500 g ai/ha, visual rating after 12 to 14 days, scale 0 to 100 (0 no effect, 100 complete control), read-out: Plant response rating, Sedge, Umbrella): 95%
pest or weed control at 62 g/ha (barnyardgrass; Echinochloa crus-galli, 62 g ai/ha, scale 0 to 100 (0 no effect, 100 complete control), read-out: Barnyardgrass plant response rating): 25%
pest or weed control at 125 g/ha (barnyardgrass; Echinochloa crus-galli, 125 g ai/ha, scale 0 to 100 (0 no effect, 100 complete control), read-out: Barnyardgrass plant response rating): 45%
pest or weed control at 250 g/ha (barnyardgrass; Echinochloa crus-galli, 250 g ai/ha, scale of 0 to 100, 0 is no effect, 100 is complete control, read-out: Barnyardgrass plant response rating): 65%
pest or weed control at 500 g/ha (barnyardgrass; Echinochloa crus-galli, 500 g ai/ha, visual rating after 12 to 14 days, scale 0 to 100 (0 no effect, 100 complete control), read-out: Plant response rating, Barnyardgrass): 90%
